According to patent US20070043024A1, “Azacyclic compounds as inhibitors of sensory neurone specific channels” (priority 2003, published 2007):
“And” between values parts separate entries of the source, which are not always exact repeats. Equal values may be shown once. Read-outs that look alike come from different tables or passages of the source.

Target: T1, human Nav1.8 (hNav1.8) ion channel (Homo sapiens, UniProt Q9Y5Y9)
T1 construct: expressed in transfected cells
Experiment: Inhibition of human Nav1.8 stably expressed in SH-SY-5Y cells (membrane potential dye fluorescence assay)
Assay type: cell-based
Conditions: SH-SY-5Y hNav1.8 cells, inhibition of membrane depolarisation, FLIPR membrane potential dye, 250 nM TTX, test concentration range 100 μM-0.05 μM

[1] = Table 2 (compound numbers of the list in the description), read-out: IC50

T1 sequence (Q9Y5Y9 whole entry): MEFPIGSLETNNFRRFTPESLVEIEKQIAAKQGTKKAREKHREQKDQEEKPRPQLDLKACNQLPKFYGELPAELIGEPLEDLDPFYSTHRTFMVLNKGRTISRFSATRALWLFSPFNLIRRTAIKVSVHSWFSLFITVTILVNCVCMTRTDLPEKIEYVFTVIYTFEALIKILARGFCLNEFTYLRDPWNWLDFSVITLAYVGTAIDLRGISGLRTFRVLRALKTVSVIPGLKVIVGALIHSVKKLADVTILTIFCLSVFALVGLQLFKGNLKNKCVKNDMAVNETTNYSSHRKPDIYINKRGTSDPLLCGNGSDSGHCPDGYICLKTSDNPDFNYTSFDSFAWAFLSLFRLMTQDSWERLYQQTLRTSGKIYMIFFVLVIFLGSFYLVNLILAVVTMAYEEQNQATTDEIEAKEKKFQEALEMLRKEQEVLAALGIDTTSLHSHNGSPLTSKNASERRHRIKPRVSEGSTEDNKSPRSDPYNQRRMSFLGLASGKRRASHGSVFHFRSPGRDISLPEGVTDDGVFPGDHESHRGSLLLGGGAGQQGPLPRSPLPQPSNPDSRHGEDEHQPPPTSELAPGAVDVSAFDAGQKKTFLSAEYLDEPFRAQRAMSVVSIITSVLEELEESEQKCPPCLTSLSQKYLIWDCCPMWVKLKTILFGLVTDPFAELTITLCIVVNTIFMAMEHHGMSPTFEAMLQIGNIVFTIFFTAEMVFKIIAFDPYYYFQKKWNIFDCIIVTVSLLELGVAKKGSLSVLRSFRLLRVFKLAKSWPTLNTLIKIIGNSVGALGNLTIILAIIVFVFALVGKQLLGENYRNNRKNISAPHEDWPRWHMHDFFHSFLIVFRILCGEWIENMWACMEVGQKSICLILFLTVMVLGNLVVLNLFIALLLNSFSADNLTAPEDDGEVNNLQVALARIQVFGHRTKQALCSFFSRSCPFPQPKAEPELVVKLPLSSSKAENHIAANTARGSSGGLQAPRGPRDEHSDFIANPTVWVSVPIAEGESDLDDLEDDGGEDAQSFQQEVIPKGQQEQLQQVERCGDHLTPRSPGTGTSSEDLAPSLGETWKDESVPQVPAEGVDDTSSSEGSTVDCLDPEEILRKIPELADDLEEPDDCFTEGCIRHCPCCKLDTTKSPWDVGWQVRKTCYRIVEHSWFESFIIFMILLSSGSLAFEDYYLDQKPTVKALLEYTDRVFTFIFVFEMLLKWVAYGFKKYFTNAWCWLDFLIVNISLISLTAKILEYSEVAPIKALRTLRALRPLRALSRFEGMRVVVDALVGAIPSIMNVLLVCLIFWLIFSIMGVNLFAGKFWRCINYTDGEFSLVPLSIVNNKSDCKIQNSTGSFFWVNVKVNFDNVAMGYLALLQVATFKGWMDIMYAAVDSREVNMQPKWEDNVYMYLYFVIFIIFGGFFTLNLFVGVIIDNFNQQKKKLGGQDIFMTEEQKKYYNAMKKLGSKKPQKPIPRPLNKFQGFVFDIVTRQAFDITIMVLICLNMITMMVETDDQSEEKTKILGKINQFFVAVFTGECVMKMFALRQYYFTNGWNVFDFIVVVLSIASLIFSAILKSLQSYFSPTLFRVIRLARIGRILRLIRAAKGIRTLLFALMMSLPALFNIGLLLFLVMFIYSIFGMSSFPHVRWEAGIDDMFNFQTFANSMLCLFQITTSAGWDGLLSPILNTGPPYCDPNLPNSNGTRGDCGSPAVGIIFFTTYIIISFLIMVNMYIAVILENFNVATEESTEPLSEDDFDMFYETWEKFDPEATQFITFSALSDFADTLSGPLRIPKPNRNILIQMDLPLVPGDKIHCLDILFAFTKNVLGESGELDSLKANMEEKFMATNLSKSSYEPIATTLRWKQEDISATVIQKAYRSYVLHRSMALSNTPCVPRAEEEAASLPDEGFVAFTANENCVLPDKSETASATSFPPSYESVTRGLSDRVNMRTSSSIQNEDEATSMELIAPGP

Compound	IC50 [1]	also measured
CC(CN1CCc2cccc(O)c2C1)OCc1ccccc1 (stereo not drawn) [Example 48, 2-(2-Benzyloxy-propyl)-1,2,3,4-tetrahydro-isoquinolin-8-ol]	–	IC50 (Table 1, read-out: IC50): 4840 nM
COc1cc2c(cc1OC)CN(CCNC(=O)N1c3ccccc3Oc3ccccc31)CC2 [Compound 165, Phenoxazine-10-carboxylic acid [2-(6,7-dimethoxy-3,4-dihydro-1H-isoquinolin-2-yl)-ethyl]-amide]	1020 nM	–
O=C(CCN1CCc2cccc(O)c2C1)N1c2ccccc2Oc2ccccc21 [Compound 190, 3-(8-Hydroxy-3,4-dihydro-1H-isoquinolin-2-yl)-1-phenoxazin-10-yl-propan-1-one]	530 nM	–
COc1ccc(C(CCNC(=O)CN2CCc3ccccc3C2)c2ccc(OC)cc2)cc1 [Compound 114, N-[3,3-Bis-(4-methoxy-phenyl)-propyl]-2-(3,4-dihydro-1H-isoquinolin-2-yl)-acetamide]	10600 nM	–
Oc1cccc2c1CN(Cc1c(F)cccc1Cl)CC2 [Example 91, 2-(2-Chloro-6-fluoro-benzyl)-1,2,3,4-tetrahydro-isoquinolin-8-ol]	–	IC50 (Table 1, read-out: IC50): 6910 nM
COc1cc2c(cc1OC)CN(CC(=O)N1c3ccccc3Sc3ccc(SC)cc31)CC2 [Compound 156, 2-(6,7-Dimethoxy-3,4-dihydro-1H-isoquinolin-2-yl)-1-(2-methylsulfanyl-phenothiazin-10-yl)-ethanone]	2370 nM	–
COc1cccc2c1CN(CC(=O)N1c3ccccc3Oc3ccccc31)C2 [Compound 196, 2-(4-Methoxy-1,3-dihydro-isoindol-2-yl)-1-phenoxazin-10-yl-ethanone]	930 nM	–
Fc1ccc(C(CCCN2CCc3ccccc3C2)c2ccc(F)cc2)cc1 [Example 9, 2-[4,4-Bis-(4-fluoro-phenyl)-butyl]-1,2,3,4-tetrahydro-isoquinoline]	–	IC50 (Table 1, read-out: IC50): 430 nM
O=C(CN1c2ccccc2Oc2ccccc21)N1Cc2ccccc2C1 [Compound 218, 1-(1,3-Dihydro-isoindol-2-yl)-2-phenoxazin-10-yl-ethanone]	12800 nM	–
O=C(CN1CCc2c(O)cccc2C1)N1c2ccccc2Oc2ccccc21 [Compound 195, 2-(5-Hydroxy-3,4-dihydro-1H-isoquinolin-2-yl)-1-phenoxazin-10-yl-ethanone]	1850 nM	–
COc1cc2c(cc1OC)CN(CC(=O)NC(c1ccc(F)cc1)c1ccc(F)cc1)CC2 [Compound 121, N-[Bis-(4-fluoro-phenyl)-methyl]-2-(6,7-dimethoxy-3,4-dihydro-1H-isoquinolin-2-yl)-acetamide]	3450 nM	–
O=C(CN1CCc2cccc(O)c2C1)N(c1ccccc1)c1ccccc1 [Compound 149, 2-(8-Hydroxy-3,4-dihydro-1H-isoquinolin-2-yl)-N,N-diphenyl-acetamide]	9090 nM	–
O=C(CN1CCc2cc(O)ccc2C1)N1c2ccccc2Oc2ccccc21 [Compound 194, 2-(6-Hydroxy-3,4-dihydro-1H-isoquinolin-2-yl)-1-phenoxazin-10-yl-ethanone]	2890 nM	–
O=C(CN1Cc2ccccc2C1)N1CCN(C(c2ccc(F)cc2)c2ccc(F)cc2)CC1 [Example 68, 1-{4-[Bis-(4-fluoro-phenyl)-methyl]-piperazin-1-yl}-2-(1,3-dihydro-isoindol-2-yl)-ethanone]	–	IC50 (Table 1, read-out: IC50): 1950 nM
COc1ccc(N(C(=O)CN2CCc3cccc(OC)c3C2)c2ccc(OC)cc2)cc1 [Compound 182, 2-(8-Methoxy-3,4-dihydro-1H-isoquinolin-2-yl)-N,N-bis-(4-methoxy-phenyl)-acetamide]	2140 nM	–
O=C(CN1CCc2cccc(O)c2C1)NCCCn1c2ccccc2c2ccccc21 [Compound 129, N-(3-Carbazol-9-yl-propyl)-2-(8-hydroxy-3,4-dihydro-1H-isoquinolin-2-yl)-acetamide]	2480 nM	–
COc1cccc2c1CN(C(=S)NCC(c1ccccc1)c1ccccc1)CC2 [Example 52, 8-Methoxy-3,4-dihydro-1H-isoquinolin-2-carbothioic acid (2,2-diphenyl-ethyl)-amide]	–	IC50 (Table 1, read-out: IC50): 4680 nM
COc1cccc2c1CN(CC(=O)N(c1ccccc1O)c1ncccc1N)CC2 [Compound 188, N-(3-Amino-pyridin-2-yl)-N-(2-hydroxy-phenyl)-2-(8-methoxy-3,4-dihydro-1H-isoquinolin-2-yl)-acetamide]	12000 nM	–
COc1cccc2c1CN(CCNC(=O)N1c3ccccc3Sc3ccccc31)CC2 [Compound 162, Phenothiazine-10-carboxylic acid [2-(8-methoxy-3,4-dihydro-1H-isoquinolin-2-yl)-ethyl]-amide]	970 nM	–
N#Cc1cccc2c1CN(CC(=O)N1c3ccccc3Oc3ccccc31)C2 [Compound 220, 2-(2-Oxo-2-phenoxazin-10-yl-ethyl)-2,3-dihydro-1H-isoindole-4-carbonitrile]	800 nM	–
COc1cc2c(cc1OC)CN(CC(=O)NN(c1ccccc1)c1ccccc1)CC2 [Compound 169, (6,7-Dimethoxy-3,4-dihydro-1H-isoquinolin-2-yl)-acetic acid N′,N′-diphenyl-hydrazide]	29900 nM	–

Compound	IC50 [1]	also measured
Cc1cc2cc(Cl)ccc2n1CCCNC(=O)CN1CCc2cccc(O)c2C1 [Compound 131, N-[3-(5-Chloro-2-methyl-indol-1-yl)-propyl]-2-(8-hydroxy-3,4-dihydro-1H-isoquinolin-2-yl)-acetamide]	3610 nM	–
O=C(CNCCC(c1ccccc1)c1ccccc1)N1CCc2ccccc2C1 [Example 34, 1-(3,4-Dihydro-1H-isoquinolin-2-yl)-2-(3,3-diphenyl-propylamino)-ethanone]	–	IC50 (Table 1, read-out: IC50): 190 nM
COc1cccc2c1CN(CCNC(=O)Nc1ccc(Oc3ccccc3)cc1)CC2 [Compound 174, 1-[2-(8-Methoxy-3,4-dihydro-1H-isoquinolin-2-yl)-ethyl]-3-(4-phenoxy-phenyl)-urea]	550 nM	–
COc1cccc2c1CN(CC(=O)N(Cc1ccccc1)Cc1ccccc1)CC2 [Compound 79, N,N-dibenzyl-2-(8-methoxy-3,4-dihydro-1H-isoquinolin-2-yl)-acetamide]	1020 nM	–
COc1cc2c(cc1OC)CN(CCNC(=O)N1c3ccccc3Sc3ccccc31)CC2 [Compound 161, Phenothiazine-10-carboxylic acid [2-(6,7-dimethoxy-3,4-dihydro-1H-isoquinolin-2-yl)-ethyl]-amide]	1110 nM	–
COc1cccc2c1CN(CC(=O)N1c3ccccc3Oc3ccccc31)CC2 [Compound 72, 2-(8-methoxy-3,4-dihydro-1H-isoquinolin-2-yl)-1-phenoxazin-10-yl-ethanone]	490 nM and 1290 nM	–
O=C(CN1Cc2ccccc2C1)NCC(c1ccccc1)c1ccccc1 [Example 66]	2050 nM	IC50 (Table 1, read-out: IC50): 2050 nM
Cc1cnc(C(C)NC(=O)CN2CCc3cccc(O)c3C2)s1 (stereo not drawn) [Example 29, 2-(8-Hydroxy-3,4-dihydro-1H-isoquinolin-2-yl)-N-[1-(5-methyl-thiazol-2-yl)-ethyl]-acetamide]	–	IC50 (IC50, Table 1): 15000 nM
COc1cccc2c1CN(C(C)C(=O)NCCC(c1ccccc1)c1ccccc1)CC2 (stereo not drawn) [Example 77, N-(3,3-Diphenyl-propyl)-2-(8-methoxy-3,4-dihydro-1H-isoquinolin-2-yl)-propionamide]	–	IC50 (Table 1, read-out: IC50): 660 nM
CC(=O)c1ccc2c(c1)N(C(=O)CN1CCc3cccc(O)c3C1)c1ccccc1S2 [Compound 147, 1-(2-Acetyl-phenothiazin-10-yl)-2-(8-hydroxy-3,4-dihydro-1H-isoquinolin-2-yl)-ethanone]	2040 nM	–
O=C(CN1Cc2cccc(Cl)c2C1)N1c2ccccc2Oc2ccccc21 [Compound 219, 2-(4-Chloro-1,3-dihydro-isoindol-2-yl)-1-phenoxazin-10-yl-ethanone]	800 nM	–
COc1cccc2c1CN(CC(=O)N1c3ccccc3OCC1c1ccc(F)cc1)CC2 (stereo not drawn) [Compound 215, 1-[3-(4-Fluoro-phenyl)-2,3-dihydro-benzo[1,4]oxazin-4-yl]-2-(8-methoxy-3,4-dihydro-1H-isoquinolin-2-yl)-ethanone]	1110 nM	–
O=C(CN1CCc2cccc(O)c2C1)NC1c2ccccc2-c2ccccc21 [Example 26, N-(9H-fluoren-9-yl)-2-(8-hydroxy-3,4-dihydro-1H-isoquinolin-2-yl)acetamide]	–	IC50 (Table 1, read-out: IC50): 670 nM
3,4-Dihydro-1H-isoquinoline-2-carbothioic acid benzhydryl-amide [Example 53]	–	IC50 (Table 1, read-out: IC50): 4060 nM
O=C(CN1CCc2cccc(O)c2C1)N1c2ccccc2Sc2ccc(C(F)(F)F)cc21 [Compound 145, 2-(8-Hydroxy-3,4-dihydro-1H-isoquinolin-2-yl)-1-(2-trifluoromethyl-phenothiazin-10-yl)-ethanone]	2630 nM	–
O=C(CN1Cc2ccccc2C1)NC(c1ccc(F)cc1)c1ccc(F)cc1 [Compound 118, N-[Bis-(4-fluoro-phenyl)-methyl]-2-(1,3-dihydro-isoindol-2-yl)-acetamide]	10200 nM	–
COc1cccc2c1CN(CC(=O)NCCC(c1ccccc1)c1ccccc1)CC2 [Example 22, N-(3,3-Diphenyl-propyl)-2-(8-methoxy-3,4-dihydro-1H-isoquinolin-2-yl)-acetamide]	–	IC50 (Table 1, read-out: IC50): 810 nM
Oc1cccc2c1CN(Cc1cc(C(F)(F)F)cc(C(F)(F)F)c1)CC2 [Example 95, 2-(3,5-Bis-trifluoromethyl-benzyl)-1,2,3,4-tetrahydro-isoquinolin-8-ol]	–	IC50 (Table 1, read-out: IC50): 1710 nM
COc1cccc2c1CN(CC(=O)N1c3ccccc3CCc3ccccc31)CC2 [Compound 73, 1-(10,11-dihydro-dibenzo[b,f]azepin-5-yl)-2-(8-methoxy-3,4-dihydro-1H-isoquinolin-2-yl)-ethanone]	1280 nM	–
COc1cccc2c1CN(CC(=O)NCCCC(c1ccccc1)c1ccccc1)C2 [Compound 82, N-(4,4-diphenyl-butyl)-2-(4-methoxy-1,3-dihydro-isoindol-2-yl)-acetamide]	1060 nM	–
